From ChEMBL document CHEMBL1140529, “Androstene-3,5-dienes as ER-beta selective SERMs” (Bioorg Med Chem Lett, 2007) come the findings set out here.

Assay [1] concerns the target T1, Estrogen receptor beta (Homo sapiens, UniProt Q92731).
Description: Binding affinity at human recombinant ERbeta
The target of assay [2] is T2, Estrogen receptor (Homo sapiens, UniProt P03372).
T2 sequence (P03372 whole entry): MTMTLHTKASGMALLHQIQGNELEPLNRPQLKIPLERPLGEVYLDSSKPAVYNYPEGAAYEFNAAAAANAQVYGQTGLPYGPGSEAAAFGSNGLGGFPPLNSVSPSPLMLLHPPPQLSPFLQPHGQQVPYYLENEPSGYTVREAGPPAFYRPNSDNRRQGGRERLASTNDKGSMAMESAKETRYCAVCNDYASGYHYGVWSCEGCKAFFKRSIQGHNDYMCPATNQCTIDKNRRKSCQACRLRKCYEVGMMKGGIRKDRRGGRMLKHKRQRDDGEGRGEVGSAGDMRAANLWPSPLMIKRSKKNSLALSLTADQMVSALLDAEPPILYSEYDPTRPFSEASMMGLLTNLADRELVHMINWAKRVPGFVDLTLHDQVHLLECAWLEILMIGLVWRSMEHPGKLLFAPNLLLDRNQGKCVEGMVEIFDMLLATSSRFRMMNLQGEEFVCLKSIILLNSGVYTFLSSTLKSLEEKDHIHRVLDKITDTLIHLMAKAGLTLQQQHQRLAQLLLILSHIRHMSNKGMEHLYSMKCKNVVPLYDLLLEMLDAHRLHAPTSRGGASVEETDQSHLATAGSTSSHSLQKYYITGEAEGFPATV
The format is functional, cell-based, HEK293.
Description: Agonist activity at ERalpha expressed in HEK293 cells by transactivation assay

Assay [3] has as its target T1, Estrogen receptor beta. In kind it is functional, cell-based, HEK293.
Description: Agonist activity at ERbeta expressed in HEK293 cells by transactivation assay
Assay [4] deals with T2, Estrogen receptor.
Description: Binding affinity at human recombinant ERalpha
Assay [5] has as its target T3, Androgen receptor (Homo sapiens, UniProt P10275).
T3 sequence (P10275 whole entry): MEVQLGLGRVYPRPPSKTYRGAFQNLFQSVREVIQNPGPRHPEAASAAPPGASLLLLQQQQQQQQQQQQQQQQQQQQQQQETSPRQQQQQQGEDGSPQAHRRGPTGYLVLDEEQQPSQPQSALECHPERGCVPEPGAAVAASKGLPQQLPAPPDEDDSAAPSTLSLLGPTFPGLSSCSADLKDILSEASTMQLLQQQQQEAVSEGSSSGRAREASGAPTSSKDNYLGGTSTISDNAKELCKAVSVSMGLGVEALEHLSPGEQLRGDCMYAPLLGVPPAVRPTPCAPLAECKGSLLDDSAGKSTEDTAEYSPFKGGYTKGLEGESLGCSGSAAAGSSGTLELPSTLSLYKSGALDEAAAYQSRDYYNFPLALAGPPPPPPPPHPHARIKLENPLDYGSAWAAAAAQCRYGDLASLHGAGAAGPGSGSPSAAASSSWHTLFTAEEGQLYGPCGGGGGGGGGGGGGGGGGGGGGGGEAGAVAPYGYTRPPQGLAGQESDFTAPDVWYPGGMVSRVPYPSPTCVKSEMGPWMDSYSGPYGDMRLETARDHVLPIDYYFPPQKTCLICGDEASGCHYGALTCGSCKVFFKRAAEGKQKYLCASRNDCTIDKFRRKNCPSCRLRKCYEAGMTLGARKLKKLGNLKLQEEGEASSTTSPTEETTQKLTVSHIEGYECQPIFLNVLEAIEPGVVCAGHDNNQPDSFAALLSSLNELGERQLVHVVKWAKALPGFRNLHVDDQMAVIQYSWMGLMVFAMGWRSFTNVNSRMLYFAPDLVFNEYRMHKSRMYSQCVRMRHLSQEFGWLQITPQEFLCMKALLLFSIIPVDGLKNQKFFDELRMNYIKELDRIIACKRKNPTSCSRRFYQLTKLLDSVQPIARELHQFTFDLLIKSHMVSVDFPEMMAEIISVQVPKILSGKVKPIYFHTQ

A value given as a limit tells only on which side of the number the result lay.

T1 sequence (Q92731 whole entry): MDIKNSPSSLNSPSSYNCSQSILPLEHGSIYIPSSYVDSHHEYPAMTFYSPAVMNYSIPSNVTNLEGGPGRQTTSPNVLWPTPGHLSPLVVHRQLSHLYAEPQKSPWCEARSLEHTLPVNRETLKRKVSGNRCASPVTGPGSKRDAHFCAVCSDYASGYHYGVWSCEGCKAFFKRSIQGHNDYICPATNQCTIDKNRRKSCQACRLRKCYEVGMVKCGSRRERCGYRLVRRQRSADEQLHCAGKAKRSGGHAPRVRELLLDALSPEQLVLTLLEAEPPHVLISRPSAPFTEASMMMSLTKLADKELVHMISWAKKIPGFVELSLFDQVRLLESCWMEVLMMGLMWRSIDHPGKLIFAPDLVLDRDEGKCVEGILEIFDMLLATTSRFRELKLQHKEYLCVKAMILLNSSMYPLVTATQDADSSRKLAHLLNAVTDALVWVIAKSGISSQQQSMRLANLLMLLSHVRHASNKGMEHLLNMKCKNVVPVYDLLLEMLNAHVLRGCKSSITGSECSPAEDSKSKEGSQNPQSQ

`C=C[C@]12CCC(CC)=CC1=CC[C@H]1[C@@H]3CC[C@H](O)[C@@]3(C)CC[C@@H]12`: the values for the concentration for half-maximal inhibition (IC50) in assay [1], in assay [4] and in assay [5] were 115 nM, 3110 nM and 500 nM, respectively. Also, the concentration for a half-maximal effect (EC50) is more than 1000 nM in assay [2] and 565 nM in assay [3].
For `C=C[C@]12CC[C@@](C)(O)CC1=CC[C@H]1[C@@H]3CC[C@H](O)[C@@]3(C)CC[C@@H]12`, the IC50 is 2490 nM in assay [1], more than 10000 nM in assay [4] and 2610 nM in assay [5]. Besides, the EC50 in assay [2] and in assay [3] was more than 1000 nM in each case.
As to `C=C[C@]12CCC(Cl)=CC1=CC[C@H]1[C@@H]3CC[C@H](O)[C@@]3(C)CC[C@@H]12`, the figures for the IC50 in assay [1] and in assay [4] were 64 nM and 5740 nM, respectively. Moreover, the EC50 in assay [2] came to 820 nM; in assay [3] it was 170 nM.
On to `C=C[C@]12CCC(c3ccccc3)=CC1=CC[C@H]1[C@@H]3CC[C@H](O)[C@@]3(C)CC[C@@H]12`, for which the IC50 in assay [1] is 1760 nM; in assay [4], more than 10000 nM; in assay [5], 3160 nM. For the same molecule, the EC50 in assay [2] and in assay [3] was more than 1000 nM throughout.
In the case of `C=C[C@]12CC[C@H](O)CC1=CC[C@@H]1[C@@H]2CC[C@@]2(C)[C@H]1CC[C@]2(C)O`, the values for the 50% effective concentration (EC50) in assay [2] and in assay [3] were more than 1000 nM and 190 nM, respectively. In assay [4], this molecule came in with an IC50 of 1050 nM.
`C#CC1(O)CC[C@H]2[C@@H]3CC=C4C[C@@H](O)CC[C@]4(C=C)[C@H]3CC[C@@]21C` (single isomer, unassigned) gave an EC50 in assay [2] of 130 nM. This molecule also returned a half-inhibitory concentration (IC50) in assay [4] of 150 nM.
Take `C=C[C@]12CCC(C)=CC1=CC[C@H]1[C@@H]3CC[C@H](O)[C@@]3(C)CC[C@@H]12`: the IC50 in assay [1] turned out to be 9 nM; in assay [4], 1440 nM; in assay [5], 560 nM. For the same molecule, the concentration giving a half-maximal response (EC50) in assay [2] was more than 1000 nM; in assay [3] it was 69 nM.
Regarding `C=C1C=C2CC[C@H]3[C@@H]4CC[C@H](O)[C@@]4(C)CC[C@@H]3[C@@]2(C)CC1`, the results for the IC50 in assay [1] and in assay [5] were 34 nM and 40 nM, respectively. The same molecule displayed a concentration for a half-maximal effect (EC50) in assay [3] of 210 nM.
`C=C[C@]12CCC(C)=CC1=CC[C@@H]1[C@@H]2CC[C@@]2(C)[C@H]1CC[C@]2(C)O`: the IC50 in assay [1] worked out at 53 nM; in assay [4], 4380 nM; in assay [5], 520 nM. Further, the results for the EC50 in assay [2] and in assay [3] were more than 1000 nM and 480 nM, respectively.
For the molecule `C=C[C@]12CCC(=C)C=C1CC[C@H]1[C@@H]3CC[C@H](O)[C@@]3(C)CC[C@@H]12`, the IC50 in assay [1] is 120 nM; in assay [4] it was more than 10000 nM; in assay [5] it was 330 nM. The results for the EC50 in assay [2] and in assay [3] were 430 nM and 230 nM, respectively.
On to `CC1=CC2=CC[C@H]3[C@@H]4CC[C@H](O)[C@@]4(C)CC[C@@H]3[C@@]2(C)CC1`, for which the IC50 turned out to be 9.4 nM in assay [1] and 2250 nM in assay [5]. This molecule also came in with an EC50 in assay [3] of 220 nM.
`C#CC1(O)CC[C@H]2[C@@H]3CC=C4C=C(C)CC[C@]4(C=C)[C@H]3CC[C@@]21C` (single isomer, unassigned): the half-maximal inhibitory concentration (IC50) in assay [1] worked out at 72 nM; in assay [4] it was 1850 nM; in assay [5], 1620 nM. In addition, the EC50 in assay [2] was 490 nM; in assay [3], 31 nM.
Take `C[C@]12CC[C@H]3[C@@H](CCC4=CC(=O)CC[C@@]43C)[C@@H]1CC[C@@H]2O` [TESTOSTERONE]: the IC50 in assay [1] is more than 10000 nM.
For the molecule `C=C[C@]12CC[C@](C)(O)CC1=CC[C@H]1[C@@H]3CC[C@H](O)[C@@]3(C)CC[C@@H]12`, the IC50 in assay [1] was found to be 255 nM; in assay [4], 5300 nM; in assay [5], 842 nM. The EC50 in assay [2] is more than 1000 nM; in assay [3], 240 nM.
